# Measurements reported in the supplement of paper PMC10307832.
# Assays:
# Assay in all cases: relative viability (nuclei count vs DMSO), 5 days (fraction); higher = more cells survive
# COR-L23 = tested on: COR-L23
# Outline: (§1)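 A single step with final 0.05% Triton X-100, 1% formaldehyde and 1 ug/ml Hoechst fixed the cells and stained nuclei 5 days after treatment. Lung cancer cell lines in 1536-well plates had been treated by pin tool the day after seeding with one drug alone or a fixed anchor-drug dose plus five library-drug doses (not always all listed) in √10 steps, and nuclei were counted on 4× images. Relative viability is the ratio of nuclei in treated wells to nuclei in vehicle wells, taken as the median of duplicate plates.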
# SK-MES-1 = tested on: SK-MES-1
# Outline: as §1
# Calu-6 = tested on: Calu-6
# Outline: as §1
# NCI-H1437 = tested on: NCI-H1437
# Outline: as §1
# SW 1573 = tested on: SW 1573
# Outline: as §1
# NCI-H1299 = tested on: NCI-H1299
# Outline: as §1
# ABC-1 = tested on: ABC-1
# Outline: as §1
# A549 = tested on: A549
# Outline: as §1
# EBC-1 = tested on: EBC-1
# Outline: as §1
# NCI-H1651 = tested on: NCI-H1651
# Outline: as §1
# IA-LM = tested on: IA-LM
# Outline: as §1
# NCI-H1703 = tested on: NCI-H1703
# Outline: as §1
compound,measurement,setting,value
COc1nc(C)cnc1NS(=O)(=O)c1cccnc1-c1ccc(-c2nnco2)cc1 [Zibotentan] + CS(=O)(=O)CCNCc1ccc(-c2ccc3ncnc(Nc4ccc(OCc5cccc(F)c5)c(Cl)c4)c3c2)o1 [Lapatinib] (partner 2 µM),relative viability,COR-L23; first compound 0.08 µM,1.21
same,relative viability,COR-L23; first compound 0.253 µM,0.849
same,relative viability,COR-L23; first compound 0.8 µM,0.922
same,relative viability,COR-L23; first compound 2.53 µM,0.798
same,relative viability,SK-MES-1; first compound 0.08 µM,0.505
same,relative viability,SK-MES-1; first compound 0.253 µM,0.453
same,relative viability,SK-MES-1; first compound 0.8 µM,0.498
same,relative viability,SK-MES-1; first compound 2.53 µM,0.509
same,relative viability,Calu-6; first compound 0.08 µM,1.02
same,relative viability,Calu-6; first compound 0.253 µM,1.06
same,relative viability,Calu-6; first compound 0.8 µM,1.16
same,relative viability,Calu-6; first compound 2.53 µM,1.14
same,relative viability,NCI-H1437; first compound 0.08 µM,0.73
same,relative viability,NCI-H1437; first compound 0.253 µM,0.557
same,relative viability,NCI-H1437; first compound 0.8 µM,0.804
same,relative viability,NCI-H1437; first compound 2.53 µM,0.827
same,relative viability,SW 1573; first compound 0.08 µM,1.18
same,relative viability,SW 1573; first compound 0.253 µM,1.11
same,relative viability,SW 1573; first compound 0.8 µM,1.2
same,relative viability,SW 1573; first compound 2.53 µM,1.14
same,relative viability,NCI-H1299; first compound 0.08 µM,0.989
same,relative viability,NCI-H1299; first compound 0.253 µM,0.906
same,relative viability,NCI-H1299; first compound 0.8 µM,0.959
same,relative viability,NCI-H1299; first compound 2.53 µM,0.928
same,relative viability,ABC-1; first compound 0.08 µM,1.28
same,relative viability,ABC-1; first compound 0.253 µM,0.885
same,relative viability,ABC-1; first compound 0.8 µM,0.971
same,relative viability,ABC-1; first compound 2.53 µM,1.28
same,relative viability,A549; first compound 0.08 µM,1.03
same,relative viability,A549; first compound 0.253 µM,1.01
same,relative viability,A549; first compound 0.8 µM,1.05
same,relative viability,A549; first compound 2.53 µM,1.12
same,relative viability,EBC-1; first compound 0.08 µM,0.235
same,relative viability,EBC-1; first compound 0.253 µM,0.222
same,relative viability,EBC-1; first compound 0.8 µM,0.222
same,relative viability,EBC-1; first compound 2.53 µM,0.2
same,relative viability,NCI-H1651; first compound 0.08 µM,0.935
same,relative viability,NCI-H1651; first compound 0.253 µM,0.366
same,relative viability,NCI-H1651; first compound 0.8 µM,0.747
same,relative viability,NCI-H1651; first compound 2.53 µM,0.854
same,relative viability,IA-LM; first compound 0.08 µM,0.68
same,relative viability,IA-LM; first compound 0.253 µM,0.808
same,relative viability,IA-LM; first compound 0.8 µM,0.9
same,relative viability,IA-LM; first compound 2.53 µM,0.847
same,relative viability,NCI-H1703; first compound 0.08 µM,0.968
same,relative viability,NCI-H1703; first compound 0.253 µM,0.894
same,relative viability,NCI-H1703; first compound 0.8 µM,1.24
same,relative viability,NCI-H1703; first compound 2.53 µM,0.511
O=c1cc(N2CCOCC2)oc2c(-c3cccc4c3sc3ccccc34)cccc12 + C[C@]1(O)C[C@@H](c2nc(-c3ccc4ccc(-c5ccccc5)nc4c3)c3c(N)nccn32)C1 [Linsitinib] (partner 1 µM),relative viability,COR-L23; first compound 0.01 µM,0.891
same,relative viability,COR-L23; first compound 0.03162 µM,0.877
same,relative viability,COR-L23; first compound 0.1 µM,1
same,relative viability,COR-L23; first compound 0.3162 µM,0.923
same,relative viability,COR-L23; first compound 1 µM,0.882
same,relative viability,SK-MES-1; first compound 0.01 µM,1.17
same,relative viability,SK-MES-1; first compound 0.03162 µM,1.02
same,relative viability,SK-MES-1; first compound 0.1 µM,1.05
same,relative viability,SK-MES-1; first compound 0.3162 µM,1.09
same,relative viability,SK-MES-1; first compound 1 µM,1.01
same,relative viability,Calu-6; first compound 0.01 µM,0.963
same,relative viability,Calu-6; first compound 0.03162 µM,0.935
same,relative viability,Calu-6; first compound 0.1 µM,1.06
same,relative viability,Calu-6; first compound 0.3162 µM,0.944
same,relative viability,Calu-6; first compound 1 µM,0.983
same,relative viability,NCI-H1437; first compound 0.01 µM,1.01
same,relative viability,NCI-H1437; first compound 0.03162 µM,1.11
same,relative viability,NCI-H1437; first compound 0.1 µM,1.09
same,relative viability,NCI-H1437; first compound 0.3162 µM,1
same,relative viability,NCI-H1437; first compound 1 µM,0.979
same,relative viability,SW 1573; first compound 0.01 µM,0.955
same,relative viability,SW 1573; first compound 0.03162 µM,0.832
same,relative viability,SW 1573; first compound 0.1 µM,0.746
same,relative viability,SW 1573; first compound 0.3162 µM,0.813
same,relative viability,SW 1573; first compound 1 µM,0.653
same,relative viability,NCI-H1299; first compound 0.01 µM,0.972
same,relative viability,NCI-H1299; first compound 0.03162 µM,0.937
same,relative viability,NCI-H1299; first compound 0.1 µM,0.945
same,relative viability,NCI-H1299; first compound 0.3162 µM,1.01
same,relative viability,NCI-H1299; first compound 1 µM,0.995
same,relative viability,ABC-1; first compound 0.01 µM,0.89
same,relative viability,ABC-1; first compound 0.03162 µM,0.717
same,relative viability,ABC-1; first compound 0.1 µM,0.745
same,relative viability,ABC-1; first compound 0.3162 µM,0.618
same,relative viability,ABC-1; first compound 1 µM,0.586
same,relative viability,A549; first compound 0.01 µM,0.568
same,relative viability,A549; first compound 0.03162 µM,0.613
same,relative viability,A549; first compound 0.1 µM,0.577
same,relative viability,A549; first compound 0.3162 µM,0.663
same,relative viability,A549; first compound 1 µM,0.592
same,relative viability,EBC-1; first compound 0.01 µM,0.973
same,relative viability,EBC-1; first compound 0.03162 µM,0.942
same,relative viability,EBC-1; first compound 0.1 µM,0.835
same,relative viability,EBC-1; first compound 0.3162 µM,1.06
same,relative viability,EBC-1; first compound 1 µM,0.993
same,relative viability,NCI-H1651; first compound 0.01 µM,1.1
same,relative viability,NCI-H1651; first compound 0.03162 µM,1.07
same,relative viability,NCI-H1651; first compound 0.1 µM,1.02
same,relative viability,NCI-H1651; first compound 0.3162 µM,1.05
same,relative viability,NCI-H1651; first compound 1 µM,0.912
same,relative viability,IA-LM; first compound 0.01 µM,0.667
same,relative viability,IA-LM; first compound 0.03162 µM,0.684
same,relative viability,IA-LM; first compound 0.1 µM,0.698
same,relative viability,IA-LM; first compound 0.3162 µM,0.506
same,relative viability,IA-LM; first compound 1 µM,0.589
same,relative viability,NCI-H1703; first compound 0.01 µM,0.786
same,relative viability,NCI-H1703; first compound 0.03162 µM,0.991
same,relative viability,NCI-H1703; first compound 0.1 µM,0.684
same,relative viability,NCI-H1703; first compound 0.3162 µM,0.641
same,relative viability,NCI-H1703; first compound 1 µM,0.919
O=c1cc(N2CCOCC2)oc2c(-c3cccc4c3sc3ccccc34)cccc12 + Cc1nc(NC(=O)N2CCC[C@H]2C(N)=O)sc1-c1ccnc(C(C)(C)C(F)(F)F)c1 [Alpelisib] (partner 2 µM),relative viability,COR-L23; first compound 0.01 µM,0.871
same,relative viability,COR-L23; first compound 0.03162 µM,0.718
same,relative viability,COR-L23; first compound 0.1 µM,0.922
same,relative viability,COR-L23; first compound 0.3162 µM,0.795
same,relative viability,COR-L23; first compound 1 µM,0.753
same,relative viability,SK-MES-1; first compound 0.01 µM,0.842
same,relative viability,SK-MES-1; first compound 0.03162 µM,0.839
same,relative viability,SK-MES-1; first compound 0.1 µM,0.867
same,relative viability,SK-MES-1; first compound 0.3162 µM,0.935
same,relative viability,SK-MES-1; first compound 1 µM,0.937
same,relative viability,Calu-6; first compound 0.01 µM,0.98
same,relative viability,Calu-6; first compound 0.03162 µM,1.05
same,relative viability,Calu-6; first compound 0.1 µM,1.01
same,relative viability,Calu-6; first compound 0.3162 µM,1.04
same,relative viability,Calu-6; first compound 1 µM,0.974
same,relative viability,NCI-H1437; first compound 0.01 µM,0.931
same,relative viability,NCI-H1437; first compound 0.03162 µM,0.937
same,relative viability,NCI-H1437; first compound 0.1 µM,1.02
same,relative viability,NCI-H1437; first compound 0.3162 µM,0.993
same,relative viability,NCI-H1437; first compound 1 µM,0.95
same,relative viability,SW 1573; first compound 0.01 µM,1.13
same,relative viability,SW 1573; first compound 0.03162 µM,0.736
same,relative viability,SW 1573; first compound 0.1 µM,0.868
same,relative viability,SW 1573; first compound 0.3162 µM,0.735
same,relative viability,SW 1573; first compound 1 µM,0.733
same,relative viability,NCI-H1299; first compound 0.01 µM,1.05
same,relative viability,NCI-H1299; first compound 0.03162 µM,1.07
same,relative viability,NCI-H1299; first compound 0.1 µM,1.11
same,relative viability,NCI-H1299; first compound 0.3162 µM,1.09
same,relative viability,NCI-H1299; first compound 1 µM,1.09
same,relative viability,ABC-1; first compound 0.01 µM,1.11
same,relative viability,ABC-1; first compound 0.03162 µM,0.939
same,relative viability,ABC-1; first compound 0.1 µM,1.01
same,relative viability,ABC-1; first compound 0.3162 µM,0.883
same,relative viability,ABC-1; first compound 1 µM,0.857
same,relative viability,A549; first compound 0.01 µM,0.866
same,relative viability,A549; first compound 0.03162 µM,0.775
same,relative viability,A549; first compound 0.1 µM,0.814
same,relative viability,A549; first compound 0.3162 µM,0.811
same,relative viability,A549; first compound 1 µM,0.845
same,relative viability,EBC-1; first compound 0.01 µM,0.977
same,relative viability,EBC-1; first compound 0.03162 µM,0.77
same,relative viability,EBC-1; first compound 0.1 µM,0.837
same,relative viability,EBC-1; first compound 0.3162 µM,0.966
same,relative viability,EBC-1; first compound 1 µM,0.827
same,relative viability,NCI-H1651; first compound 0.01 µM,0.924
same,relative viability,NCI-H1651; first compound 0.03162 µM,0.952
same,relative viability,NCI-H1651; first compound 0.1 µM,1.04
same,relative viability,NCI-H1651; first compound 0.3162 µM,0.968
same,relative viability,NCI-H1651; first compound 1 µM,1.01
same,relative viability,IA-LM; first compound 0.01 µM,0.837
same,relative viability,IA-LM; first compound 0.03162 µM,0.769
same,relative viability,IA-LM; first compound 0.1 µM,0.828
same,relative viability,IA-LM; first compound 0.3162 µM,0.736
same,relative viability,IA-LM; first compound 1 µM,0.735
same,relative viability,NCI-H1703; first compound 0.01 µM,0.538
same,relative viability,NCI-H1703; first compound 0.03162 µM,0.33
same,relative viability,NCI-H1703; first compound 0.1 µM,0.331
same,relative viability,NCI-H1703; first compound 0.3162 µM,0.317
same,relative viability,NCI-H1703; first compound 1 µM,0.317
